From article PMC12677633, “Thermosensory TRPV Heterotetramers Drive Seasonal Polyphenism: Molecular Basis of CcIav/CcNan‐PKCα‐AKH/AKHR Signaling in Pear Psyllid Morph Transition” (Advanced Science, 2025)

Tests used:
Assay in all cases: Fluo-4 AM calcium flux in HEK293T cells
[1] = test system: T1, HaIav/HaNan heterotetramer; type: cell-based, Harmonia axyridis; conditions: agonist; 2:2 molar ratio Iav/Nan
T1 construct: gene iav; ORFs co-expressed in HEK293T cells; 2:2 heterotetramer

[2] = molecular target: T2, BdIav/BdNan heterotetramer (Bactrocera dorsalis, UniProt A0A8N4L2W2+A0ABM3JT49); type: cell-based
T2 construct: gene LOC105228865; ORFs co-expressed in HEK293T cells; 2:2 heterotetramer
T2 sequence (A0ABM3JT49 1-1159): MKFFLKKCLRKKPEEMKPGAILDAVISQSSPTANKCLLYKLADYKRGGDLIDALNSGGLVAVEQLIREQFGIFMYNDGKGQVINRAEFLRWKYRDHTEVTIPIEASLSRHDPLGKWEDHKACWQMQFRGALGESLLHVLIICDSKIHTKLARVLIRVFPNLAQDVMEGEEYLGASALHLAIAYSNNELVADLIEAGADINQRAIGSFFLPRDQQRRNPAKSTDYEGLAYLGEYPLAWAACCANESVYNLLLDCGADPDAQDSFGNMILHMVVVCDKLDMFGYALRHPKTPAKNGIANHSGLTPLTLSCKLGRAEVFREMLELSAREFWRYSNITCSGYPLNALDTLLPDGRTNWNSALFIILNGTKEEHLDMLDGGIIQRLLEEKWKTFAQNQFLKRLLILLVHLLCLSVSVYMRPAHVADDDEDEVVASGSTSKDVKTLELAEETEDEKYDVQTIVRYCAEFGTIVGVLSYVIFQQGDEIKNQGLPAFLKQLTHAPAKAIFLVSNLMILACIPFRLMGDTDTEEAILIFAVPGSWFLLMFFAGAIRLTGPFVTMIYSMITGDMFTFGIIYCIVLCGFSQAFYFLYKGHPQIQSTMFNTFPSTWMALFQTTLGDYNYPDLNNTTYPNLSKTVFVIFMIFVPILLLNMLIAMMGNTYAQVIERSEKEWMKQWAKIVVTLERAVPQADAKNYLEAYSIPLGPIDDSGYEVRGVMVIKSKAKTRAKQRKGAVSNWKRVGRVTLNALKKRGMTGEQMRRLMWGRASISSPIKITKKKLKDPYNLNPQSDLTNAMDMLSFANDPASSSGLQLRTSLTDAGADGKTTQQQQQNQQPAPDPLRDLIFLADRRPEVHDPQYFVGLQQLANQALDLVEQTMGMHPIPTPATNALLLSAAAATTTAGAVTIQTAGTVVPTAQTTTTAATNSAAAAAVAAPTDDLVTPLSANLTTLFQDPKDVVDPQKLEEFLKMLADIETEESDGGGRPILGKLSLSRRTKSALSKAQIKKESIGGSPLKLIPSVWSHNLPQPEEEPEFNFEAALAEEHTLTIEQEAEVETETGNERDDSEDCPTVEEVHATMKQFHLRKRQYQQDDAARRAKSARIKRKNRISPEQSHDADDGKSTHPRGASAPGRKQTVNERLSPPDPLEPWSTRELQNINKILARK
T2 sequence (A0A8N4L2W2 1-846): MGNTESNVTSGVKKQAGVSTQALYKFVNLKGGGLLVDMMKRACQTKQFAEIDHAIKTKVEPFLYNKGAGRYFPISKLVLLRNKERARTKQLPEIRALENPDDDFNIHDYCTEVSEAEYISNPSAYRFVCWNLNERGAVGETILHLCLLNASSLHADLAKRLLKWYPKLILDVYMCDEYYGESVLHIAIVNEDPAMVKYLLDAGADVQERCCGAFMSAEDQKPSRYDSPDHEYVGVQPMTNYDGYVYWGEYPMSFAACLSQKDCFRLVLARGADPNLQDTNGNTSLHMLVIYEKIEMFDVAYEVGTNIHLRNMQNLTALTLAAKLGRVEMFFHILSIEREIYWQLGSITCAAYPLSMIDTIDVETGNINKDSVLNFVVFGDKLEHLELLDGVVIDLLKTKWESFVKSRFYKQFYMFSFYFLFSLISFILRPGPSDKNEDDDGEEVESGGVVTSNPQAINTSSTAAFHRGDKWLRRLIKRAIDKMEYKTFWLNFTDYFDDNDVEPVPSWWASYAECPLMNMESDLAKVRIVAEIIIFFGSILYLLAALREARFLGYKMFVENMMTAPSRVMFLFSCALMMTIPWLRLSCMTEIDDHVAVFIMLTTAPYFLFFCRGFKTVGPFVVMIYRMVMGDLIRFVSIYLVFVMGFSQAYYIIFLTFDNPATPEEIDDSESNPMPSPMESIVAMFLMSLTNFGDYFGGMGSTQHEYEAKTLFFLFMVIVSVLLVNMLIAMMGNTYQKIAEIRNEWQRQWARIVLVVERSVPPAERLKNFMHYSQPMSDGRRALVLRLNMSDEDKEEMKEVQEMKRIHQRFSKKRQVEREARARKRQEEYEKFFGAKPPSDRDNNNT

[3] = test system: T3, CcIav/CcNan heterotetramer; type: cell-based, Cacopsylla chinensis; conditions: agonist; 2:2 CcIav/CcNan
T3 construct: gene iav; full-length ORFs co-expressed in HEK293T cells from pcDNA3.1-mCherry-P2A; 2:2 heterotetramer

[4] = test system: T4, DcIav/DcNan heterotetramer; type: cell-based, Diaphorina citri; conditions: agonist; 2:2 molar ratio Iav/Nan
T4 construct: gene iav; ORFs co-expressed in HEK293T cells; 2:2 heterotetramer

COc1cc(CNC(=O)CCCC/C=C/C(C)C)ccc1O [capsaicin]
EC50 [1]: 24.1 µM
EC50 [2]: 24.5 µM
EC50 [3]: 0.0224 µM
EC50 [4]: 57.8 µM
